Experimental data from PubChem BioAssay (NCI).
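At the GI50, growth is halved. TGI: total growth inhibition.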

Tests used:
Test in all cases: NCI-60 cell line screen, 384-well format
[1] = tested on: MDA-MB-231 breast
[2] = tested on: T-47D breast
[3] = tested on: BT-549 breast
[4] = tested on: HCT-15 colon
[5] = tested on: MDA-MB-468 breast
[6] = tested on: NCI-H226 lung
[7] = tested on: SW-620 colon
[8] = tested on: RXF 393 renal
[9] = tested on: ACHN renal
[10] = tested on: SK-MEL-5 melanoma
[11] = tested on: SR leukemia
[12] = tested on: HOP-92 NSCLC
[13] = tested on: MCF7 breast
[14] = tested on: SK-MEL-28 melanoma
[15] = tested on: OVCAR-5 ovarian
[16] = tested on: NCI/ADR-RES ovarian
[17] = tested on: PC-3 prostate
[18] = tested on: SF-268 CNS
[19] = tested on: HCT-116 colon
[20] = tested on: MDA-MB-435 melanoma
[21] = tested on: CAKI-1 renal
[22] = tested on: NCI-H322M lung
[23] = tested on: UO-31 renal
[24] = tested on: SF-539 CNS
[25] = tested on: COLO 205 colon
[26] = tested on: NCI-H522 lung
[27] = tested on: OVCAR-4 ovarian
[28] = tested on: NCI-H23 lung
[29] = tested on: HT29 colon
[30] = tested on: RPMI-8226 leukemia
[31] = tested on: HOP-62 NSCLC
[32] = tested on: OVCAR-8 ovarian
[33] = tested on: TK-10 renal
[34] = tested on: SN12C renal
[35] = tested on: A498 renal
[36] = tested on: IGROV1 ovarian
[37] = tested on: SF-295 CNS
[38] = tested on: MOLT-4 leukemia
[39] = tested on: NCI-H460 NSCLC
[40] = tested on: MALME-3M melanoma
[41] = tested on: SK-MEL-2 melanoma
[42] = tested on: LOX IMVI melanoma
[43] = tested on: DU-145 prostate
[44] = tested on: U251 glioblastoma
[45] = tested on: OVCAR-3 ovarian
[46] = tested on: 786-0 renal
[47] = tested on: KM12 colon
[48] = tested on: M14 melanoma
[49] = tested on: UACC-62 melanoma
[50] = tested on: CCRF-CEM leukemia
[51] = tested on: SNB-19 CNS
[52] = tested on: HCC-2998 colon
[53] = tested on: K-562 leukemia
[54] = tested on: HL-60(TB) leukemia
[55] = tested on: A549 NSCLC
[56] = tested on: SK-OV-3 ovarian
[57] = tested on: UACC-257 melanoma

Compound: Cc1cc(C(=O)NC(C)(C)C)cc(C#Cc2ccc3c4c(oc3c2)C(C)(C)c2cc(NS(C)(=O)=O)ccc2C4=O)n1
- GI50 [1]: 3.45 µM
- TGI [1]: > 100 µM
- GI50 [2]: 0.631 µM
- TGI [2]: 2.27 µM
- GI50 [3]: 1.15 µM
- TGI [3]: 4.82 µM
- GI50 [4]: 0.862 µM
- TGI [4]: > 100 µM
- GI50 [5]: 0.985 µM
- TGI [5]: 2.85 µM
- GI50 [6]: 1.31 µM
- TGI [6]: 5.41 µM
- GI50 [7]: 1.26 µM
- TGI [7]: 3.54 µM
- GI50 [8]: 0.188 µM
- TGI [8]: 0.41 µM
- GI50 [9]: 0.815 µM
- TGI [9]: 8.3 µM
- GI50 [10]: 0.913 µM
- TGI [10]: 2.16 µM
- GI50 [11]: 0.198 µM
- TGI [11]: 0.42 µM
- GI50 [12]: 0.198 µM
- TGI [12]: 0.98 µM
- GI50 [13]: 0.985 µM
- TGI [13]: 4.35 µM
- GI50 [14]: 0.971 µM
- TGI [14]: 5.51 µM
- GI50 [15]: 2.08 µM
- TGI [15]: 9.85 µM
- GI50 [16]: 1.59 µM
- TGI [16]: 4.17 µM
- GI50 [17]: 2.47 µM
- TGI [17]: 9.21 µM
- GI50 [18]: 2.17 µM
- TGI [18]: > 100 µM
- GI50 [19]: 1.02 µM
- TGI [19]: > 100 µM
- GI50 [20]: 0.41 µM
- TGI [20]: 2.03 µM
- GI50 [21]: 0.549 µM
- TGI [21]: 4.11 µM
- GI50 [22]: 2.67 µM
- TGI [22]: > 100 µM
- GI50 [23]: 0.365 µM
- TGI [23]: 1.71 µM
- GI50 [24]: 1.16 µM
- TGI [24]: 5.93 µM
- GI50 [25]: 1.28 µM
- TGI [25]: 3.42 µM
- GI50 [26]: 0.813 µM
- TGI [26]: 4.13 µM
- GI50 [27]: 1.34 µM
- TGI [27]: 6.33 µM
- GI50 [28]: 0.602 µM
- TGI [28]: 2.63 µM
- GI50 [29]: 0.774 µM
- TGI [29]: 3.06 µM
- GI50 [30]: 0.168 µM
- TGI [30]: 0.41 µM
- GI50 [31]: 2.13 µM
- TGI [31]: 6.76 µM
- GI50 [32]: 1.81 µM
- TGI [32]: 6.23 µM
- GI50 [33]: 1.8 µM
- TGI [33]: 29.2 µM
- GI50 [34]: 0.934 µM
- TGI [34]: > 100 µM
- GI50 [35]: 0.833 µM
- TGI [35]: 4.66 µM
- GI50 [36]: 2.15 µM
- TGI [36]: > 100 µM
- GI50 [37]: 1.33 µM
- TGI [37]: 3.88 µM
- GI50 [38]: 0.565 µM
- TGI [38]: 1.7 µM
- GI50 [39]: 1.18 µM
- TGI [39]: 3.02 µM
- GI50 [40]: 0.695 µM
- TGI [40]: 3.01 µM
- GI50 [41]: 0.496 µM
- TGI [41]: 3.1 µM
- GI50 [42]: 3.2 µM
- TGI [42]: 7.42 µM
- GI50 [43]: 1.48 µM
- TGI [43]: 8.91 µM
- GI50 [44]: 1.89 µM
- TGI [44]: > 100 µM
- GI50 [45]: 1.46 µM
- TGI [45]: 4.42 µM
- GI50 [46]: 0.642 µM
- TGI [46]: 2.2 µM
- TGI [47]: 1.02 µM
- GI50 [48]: 1.08 µM
- TGI [48]: 3.34 µM
- GI50 [49]: 0.673 µM
- TGI [49]: 3.96 µM
- GI50 [50]: 1.26 µM
- TGI [50]: 2.83 µM
- GI50 [51]: 2.92 µM
- TGI [51]: > 100 µM
- GI50 [52]: 1.73 µM
- TGI [52]: 8.55 µM
- GI50 [53]: 1.31 µM
- TGI [53]: > 100 µM
- GI50 [54]: 0.591 µM
- TGI [54]: 1.78 µM
- GI50 [55]: 2.27 µM
- TGI [55]: > 100 µM
- GI50 [56]: 1.93 µM
- TGI [56]: 7.04 µM
- GI50 [57]: 0.977 µM
- TGI [57]: 3.07 µM
